Where “and” joins values, the source holds several entries; their conditions need not be identical. Equal values may be shown once. Read-outs that look alike come from different tables or passages of the source. *1 amine or outer side, *2 acyl side, *3 side chain or, on linkers, in order; H or OH if unused. Side-chain parts run from the residue outwards. [ ]: non-standard residue; d: D form. The star is where a group is joined. C20 diacid = O=C(O)CCCCCCCCCCCCCCCCCCC(=O)*; γGlu = O=C(O)[C@H](CCC(=O)[*:2])N[*:1]; εLys = N[C@@H](CCCCN[*:1])C(=O)[*:2]; αMeL = CC(C)C[C@](C)(N)C(=O)O; AEEA = NCCOCCOCC(=O)O; Aib = CC(C)(N)C(=O)O
Tests used:
[1] = system: MHC-II presented peptides on human dendritic cells; assay: MAPPS assay (MHC-Associated Peptide Proteomics); type: cell-based
Outline: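 Peptides eluted from anti-MHC-II immunoprecipitates of day-6 DC lysates were sequenced by MS, mapped onto the parent test molecule, and scored as percentage of donors presenting each region. DCs derived from donor CD14+ cells (IL-4, GM-CSF) received test molecules on day 4, then LPS maturation on day 5.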

[2] = system: pre-existing antibodies (ADA) in treatment-naive normal human serum; assay: Pre-existing reactivity (ACE assay format); type: binding
Procedure: This assay assessed the presence of pre-existing antibodies (ADA) against the tested molecules in treatment-naive normal human serum (NHS). Diluted NHS was incubated overnight on a Pierce Streptavidin plate coated with biotinylated tested molecules. On the following day, the captured binding proteins were acid eluted, hard-coated to a Mesoscale (MSD) plate, and detected with a combination of biotin-labeled molecule and ruthenium-labeled streptavidin. If anti-drug antibodies were present, they would bind the labeled drug and the resulting signal was referred to as Tier 1 signal (expressed as electrochemiluminescence). […] The presence of pre-existing anti-drug antibodies was expressed as magnitude of the 90th percentile of Tier 2 inhibition. The 90th percentile of Tier 2 inhibition is a statistical tool to assess the magnitude of specificity of Tier 1 reactivity. This 90th percentile was used to rank molecules in terms of ADA risk.

[3] = Pharmacokinetics in CD-1 mice, single 100 nmol/kg subcutaneous dose; type: in vivo; conditions: mouse, plasma, sc, male CD-1 mice, mean
Procedure: (§1) Plasma concentrations of compounds were determined by LC/MS methods. For each assay, the compound and an internal standard (IS), were extracted from 100% mouse, rat, pig, or monkey plasma (70 μL) using Isopropanol-Methanol. Two distinct layers were formed upon centrifugation with the compound and the IS located in the supernatant layer. An aliquot of the supernatant (150 μL) was transferred to a Waters Sirocco Protein Precipitation Plate. The supernatant was eluted using a positive pressure manifold. The supernatant was mixed with 100-2 Water-Formic acid (400 μL) in a pretreated Sep-Pak tC18 SPE plate and eluted to waste. The peptide and IS were eluted with Acetonitrile-Formic acid (100 μL) in 2 steps (50 μL each step). The elution (40 μL) from SPE plate was mixed with diluent solution (1.875 μL 5× invitrosol and 3.125 μL 1% formic acid in water, 80 μL). A final sample (10 μl) was loaded onto a Xselect CSH C18 IS column (3.5 μm 2.1×20 mm). The column effluent was directed into a Thermo Fisher Scientific Orbitrap (Exploris 240) mass spectrometer for detection and quantitation.
Male CD-1 mice were administered a single subcutaneous dose (100 nmol/kg) of compound in 40 mM Tris-HCl 5% D-mannitol (pH 8) at a volume of 5 mL/kg. Blood was collected at 6, 24, 48, 96, 168, 240, 288, and 336 hours postdose for pharmacokinetic characterization.

CD4+ T cells = assay: T cell proliferation assay; type: cell-based, human; conditions: responding donors / donors tested
Procedure: This assay assessed the ability of tested antibodies or tested MAPPS peptides to activate CD4+ T cells by inducing cellular proliferation. CD8+ T cell depleted PBMC's were prepared and labeled with CFSE. Each sample was tested with media control, keyhole limpet haemocyanin (KLH; positive clinical benchmark control), tested antibodies, or tested MAPPS peptides. Cultures were incubated for 7 days. On day 7, samples were analyzed by flow cytometry.

[4] = Pharmacokinetics in Cynomolgus monkeys, single subcutaneous or intravenous dose; type: in vivo; conditions: for Tmax: read-out: Tmax
Procedure: as §1
Male and female Cynomolgus monkeys were administered a single subcutaneous dose or intravenous dose (183 to 190 nmol/kg) of compound in 40 mM Tris-HCl 5% D-mannitol (pH 8) at a volume of 0.5 mL/kg. Blood was collected from each animal at 0.5, 3, 6, 24, 48, 72, 96, 168, 240, 336, 408, and 504 hours postdose for pharmacokinetic characterization.

[5] = both sexes, cynomolgus monkey, plasma, iv, 187 nmol/kg, single intravenous dose 187 nmol/kg, Mean
[6] = both sexes, cynomolgus monkey, plasma, iv, 187 nmol/kg, single intravenous dose 187 nmol/kg, individual animal
[7] = both sexes, cynomolgus monkey, plasma, sc, 187 nmol/kg, single subcutaneous dose 187 nmol/kg, Mean
[8] = both sexes, cynomolgus monkey, plasma, sc, 187 nmol/kg, single subcutaneous dose 187 nmol/kg, individual animal
[9] = single intravenous dose 187 nmol/kg, individual animal
[10] = single subcutaneous dose 187 nmol/kg, individual animal

- MAPPS Assay >10 donors with diverse MHC ([1]; donors displaying MHC-II peptides / donors tested): 3/20
- MAPPS Assay >10 donors with diverse MHC ([1]; percentage of donors displaying MHC-II peptides): 15%
- Pre-existing Reactivity 90th percentile T2 inhibition >50 donors ([2]; ACE assay format): 37.9%
- AUC0-inf [3]: 25.7 µM·h
- CL/F [3]: 94.6 mL/day/kg
- Cmax [3]: 327 nM
- Tmax [3]: 24 h
- half-life [3]: 22.8 h
- clearance [4, 5]: 14.7 mL/day/kg
- half-life [4, 5]: 91.6 h
- clearance [4, 6]: 12.2 mL/day/kg
- half-life [4, 6]: 91.9 h
- half-life [4, 7]: 81.9 h
- CL/F ([4]; both sexes, cynomolgus monkey, plasma, sc, 187 nmol/kg, single subcutaneous dose 187 nmol/kg, Mean, read-out: CL/F (converted)): 19.5 mL/day/kg
- Tmax [4, 7]: 48 h
- half-life [4, 8]: 72 h
- CL/F ([4]; both sexes, cynomolgus monkey, plasma, sc, 187 nmol/kg, single subcutaneous dose 187 nmol/kg, individual animal, read-out: CL/F (converted)): 20.8 mL/day/kg
- Tmax [4, 8]: 48 h
- AUC0-inf ([4]; both sexes, cynomolgus monkey, plasma, sc, single subcutaneous dose 187 nmol/kg, Mean, read-out: AUC0-inf): 238 µM·h
- Cmax ([4]; both sexes, cynomolgus monkey, plasma, sc, single subcutaneous dose 187 nmol/kg, Mean, read-out: Cmax): 1180 nM
- AUC0-inf ([4]; both sexes, cynomolgus monkey, plasma, single intravenous dose 187 nmol/kg, Mean, read-out: AUC0-inf): 315 µM·h
- C0 ([4]; both sexes, cynomolgus monkey, plasma, single intravenous dose 187 nmol/kg, Mean, read-out: C0): 4600 nM
- AUC0-inf [4, 9]: 369 µM·h and 261 µM·h
- C0 [4, 9]: 5040 nM and 4150 nM
- CL [4, 9]: 17.2 mL/day/kg
- T1/2 [4, 9]: 91.3 h
- AUC0-inf [4, 10]: 221 µM·h and 255 µM·h
- CL/F [4, 10]: 18.1 mL/day/kg
- Cmax [4, 10]: 1100 nM and 1260 nM
- T1/2 [4, 10]: 91.7 h
Substance: Ac-GSPSIVTS[αMeL]DVPT[Aib][αMeL]LQKILEQERAEKARQQAK([γGlu-AEEA-εLys-C20 diacid])EAAEILAQV-NH2 [SEQ ID NO: 1, Ac-GSPSIVTS αMeL DVPT Aib αMeL LQKILEQERAEKARQQAK(γE-(2-[2-(2-Amino-ethoxy)-ethoxy]-acetyl)-ϵK-CO-(CH2)18-CO2H)EAAEILAQV-NH2]
- peptides displayed on MHC-II complexes ([1]; human dendritic cells from normal donors): at least one peptide cluster on MHC-II complexes in a subset of donors
- immunogenicity compared with SEQ ID NO:54 ([1]; in the MAPPs assay and/or the T cell proliferation assay): substantial improvements in immunogenicity over a compound comprising SEQ ID NO:54
- 90th percentile Tier 2 inhibition (pre-existing anti-drug antibodies) [2]: higher 90th percentile Tier 2 inhibition than polypeptides comprising SEQ ID NOs: 22 and 25
- T Cell Proliferation Assay: protein 7-10 donors with diverse MHC (CD4+ T cells): 0/9
